# Reference: article PMC3517155 (ChemMedChem, 2009)
# Experiments:
# SERT = SERT (Rattus norvegicus, UniProt P31652); assay: SERT uptake, inhibition of [3H]5-HT uptake in rat cerebral cortex; type: biochemical; conditions: for Selectivity ratio SERT uptake/DAT uptake: ratio of Ki values
# NET = NET uptake, inhibition of [3H]NE uptake in rat hippocampus; type: biochemical; conditions: ratio of Ki values
# DAT [1] = biological target: T1, DAT (Rattus norvegicus, UniProt P23977); assay: DAT binding, inhibition of [3H]WIN 35,428 binding in rat striatum
# T1 sequence (P23977 whole entry): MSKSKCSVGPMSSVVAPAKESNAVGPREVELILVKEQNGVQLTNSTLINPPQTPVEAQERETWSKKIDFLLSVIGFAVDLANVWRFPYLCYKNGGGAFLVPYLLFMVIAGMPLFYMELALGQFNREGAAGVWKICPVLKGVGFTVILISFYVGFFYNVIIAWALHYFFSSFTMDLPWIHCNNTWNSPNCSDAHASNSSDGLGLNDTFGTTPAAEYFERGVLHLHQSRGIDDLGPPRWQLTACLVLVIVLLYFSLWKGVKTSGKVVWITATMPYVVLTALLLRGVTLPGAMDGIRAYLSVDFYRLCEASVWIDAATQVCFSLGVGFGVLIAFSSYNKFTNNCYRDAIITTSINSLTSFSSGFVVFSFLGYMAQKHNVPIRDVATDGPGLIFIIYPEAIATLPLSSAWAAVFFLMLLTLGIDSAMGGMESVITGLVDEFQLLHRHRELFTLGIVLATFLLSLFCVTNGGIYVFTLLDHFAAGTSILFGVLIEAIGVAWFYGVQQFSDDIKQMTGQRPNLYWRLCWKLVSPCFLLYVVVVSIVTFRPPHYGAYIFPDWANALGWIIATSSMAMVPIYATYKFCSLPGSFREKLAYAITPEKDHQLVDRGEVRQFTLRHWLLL
# DAT [2] = biological target: T1, DAT; assay: DAT uptake, inhibition of [3H]DA uptake in rat striatum; type: biochemical; conditions: for Selectivity ratio DAT uptake/DAT binding: ratio of Ki values
# Swiss-Webster mice = assay: Locomotor activity in mice; conditions: i.p., 1 mg/kg
# [3] = tested on: rats trained to discriminate 10 mg/kg cocaine from saline; assay: Cocaine drug discrimination in rats; conditions: at 10 and 30 mg/kg i.p.
# SERT, sequence (P31652 whole entry): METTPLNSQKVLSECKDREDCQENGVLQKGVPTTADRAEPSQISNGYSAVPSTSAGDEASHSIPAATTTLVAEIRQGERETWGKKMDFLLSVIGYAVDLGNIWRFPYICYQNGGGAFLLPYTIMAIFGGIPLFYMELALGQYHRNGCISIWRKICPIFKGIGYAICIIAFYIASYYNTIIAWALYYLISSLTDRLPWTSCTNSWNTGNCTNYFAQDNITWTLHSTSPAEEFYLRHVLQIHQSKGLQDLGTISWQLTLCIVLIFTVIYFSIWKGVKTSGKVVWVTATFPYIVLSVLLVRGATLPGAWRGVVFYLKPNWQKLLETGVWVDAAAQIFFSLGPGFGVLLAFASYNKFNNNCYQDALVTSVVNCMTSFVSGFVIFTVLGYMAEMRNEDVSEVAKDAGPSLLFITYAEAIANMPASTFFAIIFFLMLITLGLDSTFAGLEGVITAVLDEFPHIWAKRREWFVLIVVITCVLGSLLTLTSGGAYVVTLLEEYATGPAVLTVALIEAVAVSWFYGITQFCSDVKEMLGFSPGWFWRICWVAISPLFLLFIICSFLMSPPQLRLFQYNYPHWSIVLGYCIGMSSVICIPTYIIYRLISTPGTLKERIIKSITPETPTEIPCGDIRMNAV
Compound,Selectivity ratio SERT uptake/DAT uptake (SERT),Selectivity ratio NET uptake/DAT uptake (NET),Ki (DAT [1]),Ki (DAT [2]),Selectivity ratio DAT uptake/DAT binding (DAT [2]),Ki (SERT),time of peak effect on distance traveled (Swiss-Webster mice),percentage of cocaine-lever responding [3]
"O[C@@H]1CN(C[C@H](O)c2ccccc2)CC[C@H]1CCOC(c1ccccc1)c1ccccc1 [9a′, (3S,4S)-4-(2-(Benzhydryloxy)ethyl)-1-((R)-2-hydroxy-2-phenylethyl)piperidin-3-ol]",23,1.5,40.1 ± 19.2 nM,18.4 ± 9.5 nM,0.46,–,–,–
"O[C@@H](CN1CC[C@H](CCOC(c2ccccc2)c2ccccc2)[C@@H](O)C1)c1ccccc1 [Compound 9a, (3R,4R)-4-(2-(Benzhydryloxy)ethyl)-1-((R)-2-hydroxy-2-phenylethyl)-piperidin-3-ol]",73,1.2,6.76 ± 1.75 nM,6.23 ± 2.38 nM,0.92,456 ± 102 nM,20 to 30 min,–
"O[C@@H]1CN(C[C@H](O)c2ccc(F)cc2)CC[C@H]1CCOC(c1ccccc1)c1ccccc1 [9c′, (3S,4S)-4-(2-(benzhydryloxy)ethyl)-1-((R)-2-(4-fluorophenyl)-2-hydroxyethyl)piperidin-3-ol]",160,10,–,2.44 ± 0.37 nM,–,402 ± 67 nM,–,–
"O[C@H](CN1CC[C@@H](CCOC(c2ccccc2)c2ccccc2)[C@H](O)C1)c1ccccc1 [9b′, (3S,4S)-4-(2-(Benzhydryloxy)ethyl)-1-((S)-2-hydroxy-2-phenylethyl)piperidin-3-ol]",220,110,0.486 ± 0.065 nM,1.06 ± 0.42 nM,2.2,231 ± 49 nM,–,–
"O[C@H](CN1CC[C@@H](CCOC(c2ccccc2)c2ccccc2)[C@H](O)C1)c1ccc(F)cc1 [9d′, (3S,4S)-4-(2-(Benzhydryloxy)ethyl)-1-((S)-2-(4-fluorophenyl)-2-hydroxyethyl)piperidin-3-ol]",600,7.0,2.59 ± 0.66 nM,2.97 ± 0.72 nM,1.2,1790 nM,–,–
COC(=O)[C@H]1[C@@H](OC(=O)c2ccccc2)C[C@@H]2CC[C@H]1N2C [cocaine],–,–,–,–,–,–,–,≥ 80%
"O[C@@H](CN1CC[C@H](CCOC(c2ccccc2)c2ccccc2)[C@@H](O)C1)c1ccc(F)cc1 [Compound 9c, (3R,4R)-4-(2-(Benzhydryloxy)ethyl)-1-((R)-2-(4-fluorophenyl)-2-hydroxyethyl)piperidin-3-ol]",260,5.4,2.17 ± 0.67 nM,4.04 ± 1.22 nM,2.0,1050 nM,–,–
"O[C@H](CN1CC[C@H](CCOC(c2ccccc2)c2ccccc2)[C@@H](O)C1)c1ccccc1 [Compound 9b, (3R,4R)-4-(2-(Benzhydryloxy)ethyl)-1-((S)-2-hydroxy-2-phenylethyl)piperidin-3-ol]",33,17,2.29 ± 0.85 nM,4.69 ± 2.06 nM,2.0,155 ± 26 nM,–,–
"O[C@H](CN1CC[C@H](CCOC(c2ccccc2)c2ccccc2)[C@@H](O)C1)c1ccc(F)cc1 [Compound 9d, (3R,4R)-4-(2-(Benzhydryloxy)ethyl)-1-((S)-2-(4-fluorophenyl)-2-hydroxyethyl)piperidin-3-ol]",170,9.1,2.65 ± 0.99 nM,1.55 ± 0.27 nM,0.59,259 ± 36 nM,–,–
